Laboratory results: ChEMBL document CHEMBL5528049, “Discovery of (4-Pyrazolyl)-2-aminopyrimidines as Potent and Selective Inhibitors of Cyclin-Dependent Kinase 2” (J Med Chem, 2024)
pIC50: −log10 of the molar value. Values after ≈ are worked out from the molar mass of the structure shown.

Columns and labels:
[1] = Protein binding in human plasma assessed as free fraction incubated for 2 hrs by LC-MS/MS analysis; type: ADME, cell-free
[2] = Intrinsic clearance in human liver microsomes at 1 uM measured upto 30 mins by LC/MS analysis; type: ADME, Microsome; conditions: read-out: CLH (converted)
[3] = Apparent permeability from apical to basolateral side in human Caco-2 cells at 50 uM incubated for 120 mins by LCMS analysis
[4] = Solubility of compound in SGF by HPLC analysis
[5] = molecular target: Cyclin-dependent kinase 4/cyclin D1 (Homo sapiens, UniProt P11802); test: Inhibition of N-terminal GST-tagged human CDK4 (4 to 303 residues)/N-terminal GST-tagged human Cyclin D1 (4 to 295 residues) expressed in Sf9 insect cells incubated for 60 mins in presence of ATP by HTRF assay
[6] = species: Homo sapiens; test: Selectivity index, ratio of IC50 for inhibition of N-terminal GST-tagged full length human CDK1 (1 to 297 residues)/human Cyclin B1 (1 to 433 residues) expressed in baculovirus infected Sf21 cells to IC50 for inhibition of N-terminal GST-tagged full-length human CDK2(1 to 298 residues) /FLAG-tagged human Cyclin E1 (1 to 410 residues) expressed in baculovirus-infected Sf21 cells
[7] = molecular target: Cyclin-dependent kinase 2 (Homo sapiens, UniProt P24941); test: Inhibition of CDK2 in human whole blood spiked with CCNE1-amplified human COV318 cells assessed as reduction in retinoblastoma protein phosphorylation at S780 residue incubated overnight by HTRF microplate reader; type: cell-based
[8] = molecular target: Cyclin-dependent kinase 2/cyclin E1 (Homo sapiens, UniProt P24941); test: Inhibition of N-terminal GST-tagged full-length human CDK2(1 to 298 residues) /FLAG-tagged human Cyclin E1 (1 to 410 residues) expressed in baculovirus-infected Sf21 cells incubated for 60 mins in presence of ATP by HTRF assay
[9] = molecular target: CDK6/cyclin D3 (Homo sapiens, UniProt Q00534); test: Inhibition of N-terminal GST-tagged human CDK6 (1 to 326 residues)/N-terminal 6-His fused human Cyclin D3 (1 to 292 residues) expressed in Sf9 insect cells incubated for 60 mins by HTRF assay
[10] = molecular target: Cyclin-dependent kinase 1/cyclin B1 (Homo sapiens, UniProt P06493); test: Inhibition of N-terminal GST-tagged full length human CDK1 (1 to 297 residues)/human Cyclin B1 (1 to 433 residues) expressed in baculovirus infected Sf21 cells incubated for 60 mins in presence of ATP by HTRF assay
[11] = molecular target: Tyrosine-protein kinase JAK2 (Homo sapiens, UniProt O60674); test: Inhibition of JAK2 (unknown origin) incubated for 90 mins in presence of ATP by fluorescence microplate reader
[12] = Volume of distribution at steady state in Sprague-Dawley rat at 0.43 mg/kg, iv administered as cassette dose and measured upto 24 hrs by LC-MS/MS analysis; type: ADME, organism-based; conditions: in vivo, read-out: Vdss
[13] = Volume of distribution at steady state in cynomolgus monkey at 0.5 mg/kg, iv administered as cassette dose and measured upto 24 hrs by LC-MS/MS analysis; type: ADME, organism-based, Macaca fascicularis; conditions: in vivo, read-out: Vdss
[14] = Oral bioavailability in cynomolgus monkey at 3 mg/kg administered as cassette dose and measured upto 24 hrs by LC-MS/MS analysis; type: ADME, organism-based, Macaca fascicularis; conditions: in vivo
[15] = Hepatic blood flow in Sprague-Dawley rat at 0.43 mg/kg, iv administered as cassette dose and measured upto 24 hrs by LC-MS/MS analysis; type: ADME, organism-based; conditions: in vivo
[16] = AUC in Sprague-Dawley rat at 3 mg/kg, po administered as cassette dose and measured upto 24 hrs by LC-MS/MS analysis; type: ADME, organism-based; conditions: in vivo
[17] = AUC in cynomolgus monkey at 3 mg/kg, po administered as cassette dose and measured upto 24 hrs by LC-MS/MS analysis; type: ADME, organism-based, Macaca fascicularis; conditions: in vivo
[18] = Half-life in Sprague-Dawley rat at 0.43 mg/kg, iv administered as cassette dose and measured upto 24 hrs by LC-MS/MS analysis; type: ADME, organism-based; conditions: in vivo
[19] = Cmax in Sprague-Dawley rat at 3 mg/kg, po administered as cassette dose and measured upto 24 hrs by LC-MS/MS analysis; type: ADME, organism-based; conditions: in vivo
[20] = Hepatic blood flow in cynomolgus monkey at 0.5 mg/kg, iv administered as cassette dose and measured upto 24 hrs by LC-MS/MS analysis; type: ADME, organism-based, Macaca fascicularis; conditions: in vivo
[21] = Half-life in cynomolgus monkey at 0.5 mg/kg, iv administered as cassette dose and measured upto 24 hrs by LC-MS/MS analysis; type: ADME, organism-based, Macaca fascicularis; conditions: in vivo
[22] = Oral bioavailability in Sprague-Dawley rat at 3 mg/kg administered as cassette dose and measured upto 24 hrs by LC-MS/MS analysis; type: ADME, organism-based; conditions: in vivo
[23] = Cmax in cynomolgus monkey at 3 mg/kg, po administered as cassette dose and measured upto 24 hrs by LC-MS/MS analysis; type: ADME, organism-based, Macaca fascicularis; conditions: in vivo

SMILES | fraction unbound at 2 h [1] | CLint scaled at 1 µM [2] [mL/min/kg] | Papp A→B at 2 h, 50 µM [3] [×10⁻⁶ cm/s] | solubility [4] [µg/mL] | pIC50 [8] | pIC50 [10] | also measured
CS(=O)(=O)N1CCC(Nc2ncc(C(F)(F)F)c(-c3cnn(-c4ccc(C#N)cc4Cl)c3)n2)CC1 | 0.012 | 8.33 |  |  |  |  | 
Cn1cnc(S(=O)(=O)N2CCC(Nc3ncc(C#N)c(-c4cnn(CC(F)(F)F)c4)n3)CC2)c1 |  | < 8.33 | 0.6 | 5 (≈ 10.1 µM) |  |  | 
CS(=O)(=O)N1CCC(Nc2ncc(Cl)c(-c3cnn(C4CCOCC4)c3)n2)CC1 |  |  |  |  | 7.80 | 5.99 | pIC50 [11]: < 5.00
Cc1cnc(Nc2ccc(NS(C)(=O)=O)cc2)nc1-c1cnn(C(CC#N)C2CCCC2)c1 (racemic) |  |  |  |  | 6.22 |  | pIC50 [11]: > 9.00

Second part, led by results:

fraction unbound at 2 h [1] | CLint scaled at 1 µM [2] [mL/min/kg] | Papp A→B at 2 h, 50 µM [3] [×10⁻⁶ cm/s] | solubility [4] [µg/mL] | pIC50 [8] | pIC50 [10] | SMILES | also measured
 | 16.7 |  |  | 9.25 | 7.05 | CS(=O)(=O)N1CCC(Nc2ncc(C(F)(F)F)c(-c3cnn(-c4ccccc4Cl)c3)n2)CC1 | pIC50 [5]: 8.00; Ratio IC50 [6]: 160; pIC50 [7]: 6.08; pIC50 [9]: 7.62
0.35 | < 8.33 | 4.3 | 41 (≈ 92 µM) |  |  | CC(C)(O)Cn1cc(-c2nc(NC3CCN(S(=O)(=O)C4CC4)CC3)ncc2C#N)cn1 | 
0.059 | 8.33 | 19 | < 1 |  |  | Cn1cc(S(=O)(=O)N2CCC(Nc3ncc(C(F)(F)F)c(-c4cnn(CC(F)(F)F)c4)n3)CC2)cn1 | 
 | < 8.33 |  | 842 (≈ 1820 µM) | 9.38 | 7.20 | CC(C)(O)Cn1cc(-c2nc(NC3CCN(S(C)(=O)=O)CC3)ncc2C(F)(F)F)cn1 | pIC50 [5]: 7.43; Ratio IC50 [6]: 150; pIC50 [7]: 5.92; pIC50 [9]: 6.80
0.076 | 10 | 5.4 | 322 (≈ 598 µM) |  |  | Cn1cnc(S(=O)(=O)N2CCC(Nc3ncc(C(F)(F)F)c(-c4cnn(CC(F)(F)F)c4)n3)CC2)c1 | Vd [12]: 1.4 L/kg; Vd [13]: 0.37 L/kg; bioavailability [14]: 8%; QH [15]: 12%; AUC at 24 h [16]: 6.95 µM·h; AUC at 24 h [17]: 7.59 µM·h; half-life [18]: 3.3 h; Cmax [19]: 813 nM; QH [20]: 4.3%; half-life [21]: 3.2 h; bioavailability [22]: 48%; Cmax [23]: 778 nM
